Test results taken from patent US20170067909A1, “ASSAY-READY RECOMBINANT CELLS TRANSIENTLY OVEREXPRESSING GENES ENCODING DRUG TRANSPORTER PROTEINS AND/OR DRUG METABOLIZING ENZYMES” (Corning Incorporated, priority 2012, published 2017).
Changes are numbered by the printed parent chain. Like-named read-outs stand apart in the source and are kept apart here. Values belong to the compound of their own block, whether it stands above or below them.

Legend:
rat Oatp1b2 = target: T1, rat Oatp1b2 (Rattus norvegicus, UniProt Q9QZX8)
T1 sequence (Q9QZX8 1-687): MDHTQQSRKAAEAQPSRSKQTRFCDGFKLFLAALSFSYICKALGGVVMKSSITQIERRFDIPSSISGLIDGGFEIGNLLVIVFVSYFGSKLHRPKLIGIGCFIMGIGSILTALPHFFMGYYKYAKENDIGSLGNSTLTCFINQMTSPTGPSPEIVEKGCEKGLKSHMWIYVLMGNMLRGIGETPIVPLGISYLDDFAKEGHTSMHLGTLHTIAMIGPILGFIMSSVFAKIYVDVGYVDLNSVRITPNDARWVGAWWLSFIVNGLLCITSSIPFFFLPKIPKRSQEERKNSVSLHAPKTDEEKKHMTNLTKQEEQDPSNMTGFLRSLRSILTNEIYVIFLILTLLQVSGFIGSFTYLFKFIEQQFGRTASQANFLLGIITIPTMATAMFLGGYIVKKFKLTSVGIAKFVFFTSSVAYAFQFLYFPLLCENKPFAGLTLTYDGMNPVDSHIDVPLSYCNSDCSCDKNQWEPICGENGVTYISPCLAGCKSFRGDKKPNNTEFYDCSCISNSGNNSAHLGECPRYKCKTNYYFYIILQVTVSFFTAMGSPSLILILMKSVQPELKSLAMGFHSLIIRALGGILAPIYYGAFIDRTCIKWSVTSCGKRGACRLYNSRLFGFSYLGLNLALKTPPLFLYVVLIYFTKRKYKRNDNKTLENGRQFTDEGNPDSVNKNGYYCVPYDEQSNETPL

OCT1 [1] = target: T2, OCT1 (Homo sapiens, UniProt O15245)
T2 sequence (O15245 whole entry): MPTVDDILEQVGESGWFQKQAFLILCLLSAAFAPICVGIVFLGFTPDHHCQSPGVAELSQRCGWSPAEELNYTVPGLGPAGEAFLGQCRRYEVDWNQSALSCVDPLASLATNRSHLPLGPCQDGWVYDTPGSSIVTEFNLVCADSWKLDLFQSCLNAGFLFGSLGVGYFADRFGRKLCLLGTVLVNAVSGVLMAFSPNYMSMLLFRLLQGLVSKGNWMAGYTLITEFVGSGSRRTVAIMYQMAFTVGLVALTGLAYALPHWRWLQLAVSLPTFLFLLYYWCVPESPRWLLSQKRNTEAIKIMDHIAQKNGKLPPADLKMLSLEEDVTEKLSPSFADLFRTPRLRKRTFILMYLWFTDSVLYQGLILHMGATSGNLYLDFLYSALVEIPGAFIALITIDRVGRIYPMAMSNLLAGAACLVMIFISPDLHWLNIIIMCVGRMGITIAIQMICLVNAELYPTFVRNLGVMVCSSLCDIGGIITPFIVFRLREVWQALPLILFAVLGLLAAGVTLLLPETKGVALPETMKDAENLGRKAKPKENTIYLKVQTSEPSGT

OCT2 [2] = target: T3, OCT2 (Homo sapiens, UniProt O15244)
T3 sequence (O15244 whole entry): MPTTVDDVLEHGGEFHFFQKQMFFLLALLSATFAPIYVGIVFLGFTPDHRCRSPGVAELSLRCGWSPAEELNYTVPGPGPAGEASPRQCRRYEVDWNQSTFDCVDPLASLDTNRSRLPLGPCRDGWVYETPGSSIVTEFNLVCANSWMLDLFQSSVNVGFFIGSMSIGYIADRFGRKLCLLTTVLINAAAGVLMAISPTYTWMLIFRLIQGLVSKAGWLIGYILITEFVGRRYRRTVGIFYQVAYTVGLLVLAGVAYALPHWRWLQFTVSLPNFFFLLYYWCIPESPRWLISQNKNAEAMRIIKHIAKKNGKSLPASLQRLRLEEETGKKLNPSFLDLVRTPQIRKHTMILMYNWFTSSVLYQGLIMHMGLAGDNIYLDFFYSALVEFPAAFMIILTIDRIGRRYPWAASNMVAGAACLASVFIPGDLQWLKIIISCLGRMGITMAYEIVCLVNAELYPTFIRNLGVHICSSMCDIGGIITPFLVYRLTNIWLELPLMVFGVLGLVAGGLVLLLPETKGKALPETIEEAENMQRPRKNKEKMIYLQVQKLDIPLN

OCT1 [3] = target: T2, OCT1; conditions: read-out: IC50, Literature Report; substrate Metformin; HEK293 Cells; Sumito I, et al., JPET, 2011; cited from earlier work
OCT2 [4] = target: T3, OCT2; conditions: read-out: IC50, Literature Report; substrate Metformin; HEK293 Cells; Sumito I, et al., JPET, 2011; cited from earlier work
OAT3 [5] = target: T4, OAT3 (Homo sapiens, UniProt Q8TCC7); conditions: read-out: Km, SLC Transporter Cells; substrate 0.5 to 32 μM, incubation 1 min
T4 sequence (Q8TCC7 1-542): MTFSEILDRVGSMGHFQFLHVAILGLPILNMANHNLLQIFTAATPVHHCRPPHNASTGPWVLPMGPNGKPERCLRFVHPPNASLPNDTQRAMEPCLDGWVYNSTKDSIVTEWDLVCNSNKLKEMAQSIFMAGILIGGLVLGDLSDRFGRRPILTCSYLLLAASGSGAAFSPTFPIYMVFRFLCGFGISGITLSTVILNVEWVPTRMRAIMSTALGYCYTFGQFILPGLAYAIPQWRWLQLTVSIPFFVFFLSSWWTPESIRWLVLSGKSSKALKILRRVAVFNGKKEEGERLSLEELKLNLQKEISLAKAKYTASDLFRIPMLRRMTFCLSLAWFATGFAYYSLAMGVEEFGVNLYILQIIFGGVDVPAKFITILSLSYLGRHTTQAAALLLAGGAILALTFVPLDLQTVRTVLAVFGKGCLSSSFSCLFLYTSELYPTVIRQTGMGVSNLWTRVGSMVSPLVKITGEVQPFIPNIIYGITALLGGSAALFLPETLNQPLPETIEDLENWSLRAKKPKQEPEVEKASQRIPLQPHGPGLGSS

OAT3 [6] = target: T4, OAT3; conditions: read-out: Km, Literature Report; HEK293 cells; Ueo H, et al., Biochem Pharmacol., 2005; cited from earlier work
MATE1 = target: T5, MATE1 (Homo sapiens, UniProt Q96FL8); conditions: 5 min, 10 µM, pH 7.4
T5 sequence (Q96FL8 1-570): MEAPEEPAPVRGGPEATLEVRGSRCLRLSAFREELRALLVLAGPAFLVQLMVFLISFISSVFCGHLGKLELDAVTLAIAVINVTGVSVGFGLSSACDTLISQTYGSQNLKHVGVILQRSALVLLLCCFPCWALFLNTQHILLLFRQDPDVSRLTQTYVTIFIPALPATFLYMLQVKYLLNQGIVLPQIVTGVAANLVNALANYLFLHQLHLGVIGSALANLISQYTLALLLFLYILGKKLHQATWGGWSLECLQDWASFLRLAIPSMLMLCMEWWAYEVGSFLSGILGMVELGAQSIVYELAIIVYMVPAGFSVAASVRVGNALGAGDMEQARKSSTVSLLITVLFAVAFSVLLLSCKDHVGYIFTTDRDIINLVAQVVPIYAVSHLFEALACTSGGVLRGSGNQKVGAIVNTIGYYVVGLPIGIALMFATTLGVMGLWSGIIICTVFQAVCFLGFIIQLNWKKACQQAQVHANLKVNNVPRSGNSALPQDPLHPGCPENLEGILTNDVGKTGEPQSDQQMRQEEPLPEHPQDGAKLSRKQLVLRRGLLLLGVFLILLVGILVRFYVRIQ

MATE2K = MATE2K (Homo sapiens, UniProt Q86VL8); conditions: 5 min, 10 µM, pH 7.4
Chain of MATE2K (Q86VL8 1-566 isoform Q86VL8-3): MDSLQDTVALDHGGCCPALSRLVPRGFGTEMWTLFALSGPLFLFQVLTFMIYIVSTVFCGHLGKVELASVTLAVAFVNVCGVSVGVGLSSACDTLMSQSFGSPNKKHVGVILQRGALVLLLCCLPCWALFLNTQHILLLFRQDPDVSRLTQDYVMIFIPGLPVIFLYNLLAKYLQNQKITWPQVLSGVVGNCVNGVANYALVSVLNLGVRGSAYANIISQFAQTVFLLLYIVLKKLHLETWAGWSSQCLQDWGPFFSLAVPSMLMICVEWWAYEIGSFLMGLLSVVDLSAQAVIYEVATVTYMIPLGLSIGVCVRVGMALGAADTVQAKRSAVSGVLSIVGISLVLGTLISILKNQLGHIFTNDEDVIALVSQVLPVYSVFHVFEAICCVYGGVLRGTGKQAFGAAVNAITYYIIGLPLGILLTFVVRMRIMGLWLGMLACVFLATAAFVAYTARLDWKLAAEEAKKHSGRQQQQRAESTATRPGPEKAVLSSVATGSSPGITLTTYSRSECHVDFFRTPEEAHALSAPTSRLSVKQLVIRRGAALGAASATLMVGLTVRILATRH

OATP1B1*5 = target: T6, OATP1B1*5 (Homo sapiens, UniProt Q9Y6L6, V174A)
T6 sequence (Q9Y6L6 1-691 V174A): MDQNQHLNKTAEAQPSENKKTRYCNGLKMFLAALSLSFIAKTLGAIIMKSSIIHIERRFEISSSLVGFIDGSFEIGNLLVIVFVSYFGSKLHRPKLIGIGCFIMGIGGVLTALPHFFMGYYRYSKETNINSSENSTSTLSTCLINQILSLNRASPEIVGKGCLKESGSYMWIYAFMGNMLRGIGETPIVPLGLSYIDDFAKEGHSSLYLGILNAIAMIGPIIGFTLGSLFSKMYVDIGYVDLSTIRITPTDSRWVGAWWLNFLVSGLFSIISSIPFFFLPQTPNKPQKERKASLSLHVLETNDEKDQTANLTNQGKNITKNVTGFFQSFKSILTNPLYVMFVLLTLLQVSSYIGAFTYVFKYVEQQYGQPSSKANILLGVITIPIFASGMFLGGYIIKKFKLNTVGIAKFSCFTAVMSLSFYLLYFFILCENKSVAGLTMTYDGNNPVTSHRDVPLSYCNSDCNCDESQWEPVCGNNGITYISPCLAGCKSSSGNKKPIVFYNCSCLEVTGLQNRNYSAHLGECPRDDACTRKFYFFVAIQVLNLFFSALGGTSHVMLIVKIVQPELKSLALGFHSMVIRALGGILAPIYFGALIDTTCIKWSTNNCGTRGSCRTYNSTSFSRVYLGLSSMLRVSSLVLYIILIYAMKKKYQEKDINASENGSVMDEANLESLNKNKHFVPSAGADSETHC

OATP1B1*15 = target: T7, OATP1B1*15 (Homo sapiens, UniProt Q9Y6L6, N130D/V174A); conditions: for uptake reduced to: human
T7 sequence (Q9Y6L6 1-691 N130D/V174A): T6 sequence (Q9Y6L6 1-691 V174A) with N130D

[7] = HEK-293 cells overexpressing the transporter

Structure (SMILES): CSCC[C@H](NC(=O)[C@H](Cc1ccc(OS(=O)(=O)O)cc1)NC(=O)[C@@H](N)CC(=O)O)C(=O)NCC(=O)N[C@@H](Cc1c[nH]c2ccccc12)C(=O)N[C@@H](CCSC)C(=O)N[C@@H](CC(=O)O)C(=O)N[C@@H](Cc1ccccc1)C(N)=O [CCK-8, cholecystokinin]
- uptake of substrate (in words) (dog Oatp1b4; [7]): significant uptake
- uptake of substrate (in words) (rat Oatp1b2; [7]): significant uptake

Structure (SMILES): CN/C(=N/CCSCc1nc[nH]c1C)NC#N [Cimetidine]
- IC50 (OCT1 [1]): 230 µM
- IC50 (OCT2 [2]): 195 µM
- IC50 (OCT1 [3]): 104 µM
- IC50 (OCT2 [4]): 124 µM

Structure (SMILES): C[C@]12CC[C@@H]3c4ccc(OS(=O)(=O)O)cc4CC[C@H]3[C@@H]1CCC2=O [E3S, Estrone-3-sulfate]
- Km (OAT3 [5]): 4 µM
- Km (OAT3 [6]): 6.3 µM

Structure (SMILES): CN(C)C(=N)N=C(N)N [Metformin]
- UPTAKE ACTIVITY SLC transporter (MATE1): 71.4 pmol/mg/min
- Uptake Ratio (MATE1): 12
- UPTAKE ACTIVITY SLC transporter (MATE2K): 33.5 pmol/mg/min
- Uptake Ratio (MATE2K): 6.5

Structure (SMILES): CC(C)c1c(C(=O)Nc2ccccc2)c(-c2ccccc2)c(-c2ccc(F)cc2)n1CC[C@@H](O)C[C@@H](O)CC(=O)O [atorvastatin]
- uptake activity / transport compared to OATP1B1*1a cells (in words) (OATP1B1*5): Significant decrease in uptake activity
- uptake activity / transport compared to OATP1B1*1a cells (in words) (OATP1B1*15): Significant decrease in uptake activity

Now from value to compound:

- uptake reduced to (OATP1B1*15): less than 5%
Structure (SMILES): CC(C)n1c(/C=C/C(O)CC(O)CC(=O)O)c(-c2ccc(F)cc2)c2ccccc21 (stereo not shown) [fluvastatin]

- uptake reduced to (OATP1B1*15): 40%
Structure (SMILES): O=C(O)C[C@H](O)C[C@H](O)/C=C/c1c(C2CC2)nc2ccccc2c1-c1ccc(F)cc1 [pitavastatin]

- uptake of substrate (in words) (monkey Oatp1b1): significant uptake
- uptake of substrate (in words) (dog Oatp1b4): significant uptake
- uptake of substrate (in words) (rat Oatp1b2): significant uptake
Structure (SMILES): CC(C)c1nc(N(C)S(C)(=O)=O)nc(-c2ccc(F)cc2)c1/C=C/[C@@H](O)C[C@@H](O)CC(=O)O [rosuvastatin]
